Measurements: patent US20210308166A1, “ANTIOXIDANT COMPOSITION COMPRISING NOVEL GINSENOSIDE” (AMOREPACIFIC CORPORATION, priority 2018, published 2021)

What was measured:
[1] = DPPH radical-scavenging (DPPH inhibition) assay; type: biochemical
Description: The DPPH (2,2-diphenyl-1-picrylhydrazyl) radical dissolved in an organic solvent has maximum absorbance at 515 nm. An antioxidant substance scavenges the DPPH radical, thereby turning the solution colorless and transparent. Accordingly, antioxidant effect can be compared by measuring the DPPH radical-scavenging activity of the ginsenosides through DPPH assay.
First, a DPPH solution was prepared by dissolving 4 mg of DPPH (Sigma) in 100 mL of ethanol (Sigma). Then, 10 μM of the novel ginsenoside GS #10 of an exemplary embodiment of the present disclosure or each of the ginsenosides GS #01 to GS #06 as comparative examples of the present disclosure, isolated from the ginseng seed extract, were dissolved in 200 μL of the DPPH solution. Trolox (Sigma; 10 μM) was used as a positive control group. After keeping the reaction solution at room temperature for 30 minutes, absorbance was measured at a wavelength of 515 nm.
DPPH-inhibiting effect was compared in the same manner as in Test Example 1. The novel ginsenoside GS #10 (isolated form the ginseng seed extract) according to an exemplary embodiment of the present disclosure was compared with three marker compounds of red ginseng (Rg1, Rg3 and Rb1; Sigma) as comparative examples of the present disclosure. The concentrations of the ginsenosides were 1 and 10 μM. […]

SH-SY5Y cells = experiment: Cytotoxicity / cell viability, CCK-8; type: cell-based; details: SH-SY5Y cells, 0.1, 1, 5, 10, 20 and 50 μM, CCK-8 (FIG. 15)
Description: In order to exclude the possibility that the ginsenoside might affect antioxidant effect through cytotoxic activity, cell growth in the presence of the novel ginsenoside GS #10 according to an exemplary embodiment of the present disclosure was evaluated as follows using CCK (Cell Counting Kit)-8.
After adding 10 μL of CCK-8 reagent to SH-SY5Y cells (Dojindo, Md., USA) on a 96-well plate and maintaining at 37° C. for 2 hours, absorbance was measured at 450 nm. Cell viability was represented as the percentage (%) of the absolute optical density of each sample with respect to an untreated sample. The concentrations of the novel ginsenoside GS #10 according to an exemplary embodiment of the present disclosure in the medium for culturing the cells were 0.1, 1, 5, 10, 20 and 50 μM.

RAW 264.7 macrophages = experiment: Scavenging of LPS-induced reactive oxygen species, H2DCFDA fluorescence; type: cell-based
Description: RAW 264.7 macrophages purchased from ATCC were cultured in Dulbecco's modified Eagle's medium (Sigma) supplemented with 10% fetal bovine serum (FBS; HyClone) and 1% penicillin/streptomycin (Sigma) in a 5% CO2 incubator. After treating the RAW 264.7 cells with NAC (N-acetylcysteine; positive control group; Sigma) or each of the 7 ginsenosides extracted from the ginseng seed (GS #01 to GS #06 and GS #10; 10 μM each) for 1 hour, lipidpolysaccharides (LPS; inflammation/oxidative stress-induced group, Sigma) ware administered at a concentration of 10 ng/mL concentration for 30 minutes. Then, the cells were treated with 10 μM H2DCFDA (2′,7′-dichlorodihydrofluorescein diacetate; Invitrogen) for 30 minutes for measurement of reactive oxygen species. The amount of accumulated reactive oxygen species was measured using a TECAN multiplate reader (Tecan AG, excitation 485 nm, emission 530 nm).
The reactive oxygen species-scavenging ability of the novel ginsenoside GS #10 (isolated from the ginseng seed extract) according to an exemplary embodiment of the present disclosure was compared with that of three ginsenosides (Rg1, Rg3 and Rb1; Sigma), which are marker compounds of red ginseng as comparative examples of the present disclosure, in the same manner as in Test Example 2. The concentrations of the ginsenosides were 1 and 10 μM.

CC1(C)C(=O)CC[C@@]2(C)C1[C@@H](O[C@H]1OC(CO)[C@H](O)C(O)C1O[C@H]1OC(CO)[C@H](O)C(O)C1O)C[C@]1(C)C2C[C@@H](O)C2C([C@]3(C)CC[C@H](C(C)(C)O)O3)CC[C@]21C (stereo partly drawn) [Compound 10, (20S,24R)-6-O-β-D-glucopyranosyl(1->2)-β-D-glucopyranoside-dammar-3-one-20,24-epoxy-6a,12b,25-triol]
DPPH (reactive oxygen species)-scavenging ability, i.e., DPPH-inhibiting ability ([1]; 10 μM, room temperature 30 minutes, absorbance 515 nm, compared to Compounds 1-6 at the same concentration (FIG. 11)): remarkably higher DPPH (reactive oxygen species)-scavenging ability
DPPH-inhibiting effect ([1]; 1 and 10 μM, compared to ginsenosides Rg1, Rg3 and Rb1, marker compounds of red ginseng (FIG. 13)): remarkably excellent DPPH-inhibiting effect
cytotoxicity (cell viability, % of untreated sample) (SH-SY5Y cells): no cytotoxicity up to 50 μM
removal of reactive oxygen species induced by LPS (RAW 264.7 macrophages; 10 μM for 1 hour, then LPS 10 ng/mL 30 minutes, compared to Compounds 1-6 at the same concentration (FIG. 12)): can effectively remove the reactive oxygen species induced by LPS
production of reactive oxygen species (RAW 264.7 macrophages; 1 and 10 μM, LPS-treated RAW 264.7 cells (FIG. 14)): decreased as the concentration of the novel ginsenoside GS #10 according to the present disclosure was increased
reactive oxygen species-scavenging ability (RAW 264.7 macrophages; 1 and 10 μM, compared to ginsenosides Rg1, Rg3 and Rb1 (FIG. 14)): remarkably superior
